Test results as given in US20090149504A1, “Novel 5-Substituted Indole Derivatives As Dipeptidyl Peptidase IV (DPP-IV) Inhibitors” (AURIGENE DISCOVERY TECHNOLOGIES LIMITED, priority 2005, published 2009).
Counter-ions that a name gives are not always drawn.

Columns and labels:
[1] = system: Male C57BL/KsJ-db/db mice; assay: In vivo efficacy in genetic models: oral glucose challenge in db/db mice; settings: 3 mg/kg
Description: (b) db/db mice Male C57BL/KsJ-db/db mice of 8 to 14 weeks age, having body weight in the range of 35 to 60 grams, bred at Discovery Research, Dr. Reddy's Laboratories, were used in the experiment. The animals were maintained under 12 hour light and dark cycle at 24+/−2° C., given standard laboratory chow (NIN, Hyderabad, India) and water, ad libitum. The test compound (Example-4) was administered at 3 mg/kg dose. The control animals received the vehicle (0.2% Tween 80, dosed at 10 ml/kg) through oral gavage. 30 minutes after administration of test compound, 1.5 g/kg glucose at 10 ml/kg was administered by oral gavage. Blood samples were collected at 0 (prior to compound administration), 15, 30, 60 and 120 min after glucose challenge for estimation of plasma glucose levels, insulin and DPP-IV activity. Blood samples (0, 7, 15 min) from a satellite group of animals were collected in chilled EDTA tubes and immediately DPP-IV inhibitor (Linco Research) was added to achieve final concentration of 10 μl/mL of blood to estimate GLP-1 levels. Blood samples were centrifuged and separated plasma was stored at −20° C. until analysis. Glucose, Insulin and GLP-1 levels, and plasma DPP-IV activity were measured as described above (Example-66). Compound (Example-4) reduced the glucose levels by 58%. There was 16-fold increase in GLP-1 levels at 7 min and 5.4-fold increase in insulin levels at 15 min after glucose challenge.

Zucker fa/fa fatty rats = assay: In vivo efficacy in genetic models: oral glucose challenge in Zucker fa/fa rats; set-up: species or system rat; settings: 3 mg/kg
Description: (a) Zucker fa/fa rats Zucker fa/fa fatty rats were obtained from IffaCredo, France. The animals were maintained under 12 hour light and dark cycle at 24+/−2° C., given standard laboratory chow (NIN, Hyderabad, India) and water, ad libitum. The test compound (Example-4) was administered at 3 mg/kg dose to overnight fasted animals. The control animals received the vehicle (0.2% tween 80, dosed at 1 ml/kg) orally. Thirty minutes after administration of test compound, 2 g/kg glucose at 5 ml/kg was administered by oral gavage. Blood samples were collected at 0 (prior to compound administration), 7, 20, 40, 60 and 120 min after glucose challenge, for estimation of plasma glucose and insulin levels, and DPP-IV activity. Additional blood samples were collected in chilled EDTA tubes and immediately DPP-IV inhibitor (Linco Research, USA) was added to achieve final concentration of 10 μl/mL of blood to estimate GLP-1 levels. Blood samples were centrifuged and separated plasma samples were stored at −20° C. until analysis. Plasma DPP-IV activity and glucose levels were measured as described above (Example-65). Insulin and GLP-1 levels were measured using ELISA kits, as per manufacturer's procedures (Linco Research, USA). […] There was a 7-fold increase in GLP-1 levels at 7 min and 6-fold increase in insulin levels at 15 min after glucose challenge.

Plasma DPP-IV activity = target: T1, Plasma DPP-IV activity (Rattus norvegicus, UniProt P14740); assay: In vivo efficacy study in rat: plasma DPP-IV activity after oral dosing; settings: 3 mg/kg oral, male wistar rats, measured at 20 min after glucose challenge
T1 construct: from tissue; host or cells: plasma of orally dosed male Wistar rats
T1 sequence (P14740 37-767 limits assumed): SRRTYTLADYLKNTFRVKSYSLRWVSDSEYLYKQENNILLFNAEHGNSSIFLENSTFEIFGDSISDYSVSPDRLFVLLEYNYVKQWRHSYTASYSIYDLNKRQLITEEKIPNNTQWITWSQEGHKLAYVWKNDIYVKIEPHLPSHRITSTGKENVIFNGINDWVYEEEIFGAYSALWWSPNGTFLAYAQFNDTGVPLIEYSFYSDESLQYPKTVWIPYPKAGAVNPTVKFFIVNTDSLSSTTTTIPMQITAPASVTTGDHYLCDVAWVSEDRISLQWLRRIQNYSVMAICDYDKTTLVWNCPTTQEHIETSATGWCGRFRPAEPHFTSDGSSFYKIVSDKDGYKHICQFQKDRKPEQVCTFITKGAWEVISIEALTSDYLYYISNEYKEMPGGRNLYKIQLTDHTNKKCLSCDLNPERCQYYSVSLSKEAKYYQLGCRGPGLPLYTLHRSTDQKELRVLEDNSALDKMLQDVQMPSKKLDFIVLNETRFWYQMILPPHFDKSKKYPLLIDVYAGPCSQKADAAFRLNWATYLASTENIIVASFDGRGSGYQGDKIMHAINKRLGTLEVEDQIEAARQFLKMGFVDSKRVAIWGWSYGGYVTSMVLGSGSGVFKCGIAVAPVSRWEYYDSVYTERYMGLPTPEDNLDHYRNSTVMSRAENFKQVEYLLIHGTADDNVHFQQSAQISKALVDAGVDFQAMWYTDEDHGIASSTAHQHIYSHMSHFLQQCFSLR
Description: DPP-IV from porcine kidney (D-7052) and the substrate Gly-Pro-7-amido-4-methylcoumar0in hydrobromide (Gly-Pro-AMC, G2761) were obtained from Sigma Chemical Company, USA. Stock solutions of test compounds were prepared in dimethylsulfoxide. DPP IV enzyme cleaves the peptide substrate Gly-Pro-AMC leading to the formation of AMC, which is highly fluorescent. Molecules that inhibit DPP IV prevent or reduce the liberation of AMC from the substrate. The ability of test compounds to inhibit DPP IV was measured fluorimetrically by monitoring the formation of AMC. The assay was carried out in 20 mM Tris.HCl, pH 8 buffer. […] After 30 minutes incubation at 30° C., the fluorescence at 460 nm was measured (λex=360 nm) in a Spectramax Gemini spectrofluorimeter (Molecular Devices, USA). […]
Male wistar rats were divided into groups of 6, fasted for approximately 16-18 hours before the experiment, and dosed orally with 0.3, 1, 3 and 10 mg/kg of the test compounds in carboxymethylcellulose (CMC) or Tween 80. […] Blood samples obtained at various time points from chronic jugular vein catheters/retro orbital bleed were analyzed for plasma glucose and plasma DPP-IV activity. Measurement of Plasma glucose was carried out using Merckotest Glucose kit (GOD-POD method, Merck) in Selectra Clinical Chemistry analyzer, and area under the curve (AUC) for glucose (0-120 min) was calculated. […]

[2] = target: T2, DPP-IV from porcine kidney (Sus scrofa, UniProt P22411); assay: In vitro DPP IV inhibition measurement (fluorimetric, Gly-Pro-AMC substrate); type: biochemical; settings: 50 μM Gly-Pro-AMC, pH 8, 30° C.
T2 construct: DPP-IV from porcine kidney (D-7052); purchased Sigma Chemical Company, USA D-7052; host or cells: porcine kidney (tissue-derived)
T2 sequence (P22411 whole entry): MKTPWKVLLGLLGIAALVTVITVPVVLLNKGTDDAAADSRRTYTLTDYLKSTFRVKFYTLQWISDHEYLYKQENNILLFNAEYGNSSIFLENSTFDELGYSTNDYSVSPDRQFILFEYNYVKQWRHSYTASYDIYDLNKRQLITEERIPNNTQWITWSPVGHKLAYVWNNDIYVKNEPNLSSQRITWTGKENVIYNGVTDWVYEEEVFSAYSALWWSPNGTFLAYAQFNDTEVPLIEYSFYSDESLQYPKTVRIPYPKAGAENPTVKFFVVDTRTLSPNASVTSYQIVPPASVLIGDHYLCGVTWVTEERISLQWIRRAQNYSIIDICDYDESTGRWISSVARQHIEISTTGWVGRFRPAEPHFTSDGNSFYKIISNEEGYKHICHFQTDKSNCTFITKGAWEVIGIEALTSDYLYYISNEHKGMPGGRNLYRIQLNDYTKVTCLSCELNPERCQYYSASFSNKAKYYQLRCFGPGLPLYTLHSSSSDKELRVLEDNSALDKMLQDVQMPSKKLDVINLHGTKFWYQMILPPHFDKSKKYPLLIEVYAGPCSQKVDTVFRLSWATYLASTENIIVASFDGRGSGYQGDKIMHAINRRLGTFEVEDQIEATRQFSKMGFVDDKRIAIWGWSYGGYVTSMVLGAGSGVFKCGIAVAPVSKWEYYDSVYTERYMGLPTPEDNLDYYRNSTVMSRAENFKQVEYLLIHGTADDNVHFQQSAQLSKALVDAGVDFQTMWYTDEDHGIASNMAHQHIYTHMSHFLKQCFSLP
Description: DPP-IV from porcine kidney (D-7052) and the substrate Gly-Pro-7-amido-4-methylcoumar0in hydrobromide (Gly-Pro-AMC, G2761) were obtained from Sigma Chemical Company, USA. Stock solutions of test compounds were prepared in dimethylsulfoxide. DPP IV enzyme cleaves the peptide substrate Gly-Pro-AMC leading to the formation of AMC, which is highly fluorescent. Molecules that inhibit DPP IV prevent or reduce the liberation of AMC from the substrate. The ability of test compounds to inhibit DPP IV was measured fluorimetrically by monitoring the formation of AMC. The assay was carried out in 20 mM Tris.HCl, pH 8 buffer. Test compounds were incubated with the enzyme (5 mU/100 μl) in a 96-well black flat bottom microtiter plate (Greiner bio-one, Germany) for 20 minutes at 30° C. and the reaction was initiated by the addition of 50 μM Gly-Pro-AMC. After 30 minutes incubation at 30° C., the fluorescence at 460 nm was measured (λex=360 nm) in a Spectramax Gemini spectrofluorimeter (Molecular Devices, USA). IC50, the concentration of compound required to inhibit 50% of enzyme activity was determined and the compounds were rated accordingly. For the IC50 determination, non-linear fitting of the dose-response curves were carried out using Kaleidagraph v3 software. LAF237 [Novarti's vildagliptin is a new class of oral antidiabetic agents known as dipeptidyl peptidase IV inhibitors (DPP-IV) inhibitors] was used as the standard inhibitor for the assay.

Male wistar rats = assay: In vivo efficacy study in rat: oral glucose tolerance (plasma glucose); settings: 3 mg/kg oral, 2 g/kg oral glucose, measured at 20 min after glucose challenge
Description: Male wistar rats were divided into groups of 6, fasted for approximately 16-18 hours before the experiment, and dosed orally with 0.3, 1, 3 and 10 mg/kg of the test compounds in carboxymethylcellulose (CMC) or Tween 80. After 30 min of test compound dosing, an oral glucose bolus of 2 g/kg was administered directly into the stomach of the test animals. Blood samples obtained at various time points from chronic jugular vein catheters/retro orbital bleed were analyzed for plasma glucose and plasma DPP-IV activity. Measurement of Plasma glucose was carried out using Merckotest Glucose kit (GOD-POD method, Merck) in Selectra Clinical Chemistry analyzer, and area under the curve (AUC) for glucose (0-120 min) was calculated. Plasma DPP-IV activity was measured as described above (Example-64), using 2 μl plasma for every reaction.

[3] = at 7 min after glucose challenge
[4] = at 15 min after glucose challenge

Row | IC50 [2] [nM] | SMILES | further results
1 | 1.32 | N#C[C@@H]1CCCN1C(=O)[C@@H](N)Cc1c[nH]c2ccc(Oc3ccc([N+](=O)[O-])cn3)cc12 [Example 4, Trifluoroacetic acid salt] | reduced the glucose levels ([1]; 1.5 g/kg oral glucose 30 min after compound): 58%; increase in GLP-1 levels [1, 3]: 16 fold; increase in insulin levels [1, 4]: 5.4 fold; reduction in glucose (Zucker fa/fa fatty rats; 2 g/kg oral glucose 30 min after compound): 55%; increase in GLP-1 levels (Zucker fa/fa fatty rats; [3]): 7 fold; increase in insulin levels (Zucker fa/fa fatty rats; [4]): 6 fold; inhibition at 3 mg/kg (Plasma DPP-IV activity): 90%; % Glucose reduction (Male wistar rats): 34%
2 | 5.5 | N#Cc1ccc(Oc2ccc3[nH]cc(C[C@H](N)C(=O)N4CCC[C@H]4C#N)c3c2)nc1 [Example 6, (S,S) 6-{3-[2-Amino-3-(2-cyano-pyrrolidin-1-yl)-3-oxo-propyl]-1H-indol-5-yloxy}-nicotinonitrile. Trifluoroacetic acid salt] | 
3 | 1.82 | N#C[C@@H]1CCCN1C(=O)[C@@H](N)Cc1c[nH]c2ccc(Oc3ccc([N+](=O)[O-])cc3)cc12 [Example 12] | inhibition at 3 mg/kg (Plasma DPP-IV activity): 74%; % Glucose reduction (Male wistar rats): 22%
4 | 8.9 | N#Cc1cccnc1Oc1ccc2[nH]cc(C[C@H](N)C(=O)N3C[C@@H](F)C[C@H]3C#N)c2c1 [Example 27, (S,S,S) 2-{3-[2-Amino-3-(2-cyano-4-fluoro-pyrrolidin-1-yl)-3-oxo-propyl]-1H-indol-5-yloxy} nicotinonitrile. Trifluoroacetic acid salt] | 
5 | 1.5 | N#C[C@@H]1C[C@H](F)CN1C(=O)[C@@H](N)Cc1c[nH]c2ccc(Oc3ccc([N+](=O)[O-])cc3)cc12 [Example 28, Trifluoroacetic acid salt] | 
6 | 4.7 | N#Cc1ccc(Oc2ccc3[nH]cc(C[C@H](N)C(=O)N4C[C@@H](F)C[C@H]4C#N)c3c2)nc1 [Example 30, (S,S,S) 6-{3-[2-Amino-3-(2-cyano-4-fluoro-pyrrolidin-1-yl)-3-oxo-propyl]-1H-indol-5-yloxy}-nicotinonitrile. Trifluoroacetic acid salt] | 
7 | 6.3 | N#Cc1cccnc1Oc1ccc2[nH]cc(C[C@H](N)C(=O)N3CSC[C@@H]3C#N)c2c1 [Example 32, (S,S) 2-{3-[2-Amino-3-(4-cyano-thiazolidin-3-yl)-3-oxo-propyl]-1H-indol-5-yloxy}-nicotinonitrile. Trifluoroacetic acid salt] | 
8 | 3.5 | N#Cc1ccc(Oc2ccc3[nH]cc(C[C@H](N)C(=O)N4CSC[C@@H]4C#N)c3c2)nc1 [Example 33, (S,S) 6-{3-[2-Amino-3-(4-cyano-thiazolidin-3-yl)-3-oxo-propyl]-1H-indol-5-yloxy}-nicotinonitrile. Trifluoroacetic acid salt] | 
9 | 2.8 | N#C[C@H]1CSCN1C(=O)[C@@H](N)Cc1c[nH]c2ccc(Oc3ccc([N+](=O)[O-])cc3)cc12 [Example 34, Trifluoroacetic acid salt] | 
10 | 3.7 | N#C[C@H]1CSCN1C(=O)[C@@H](N)Cc1c[nH]c2ccc(Oc3ccc([N+](=O)[O-])cn3)cc12 [Example 35, (S,S) 3-{2-Amino-3-[5-(5-nitro-pyridin-2-yloxy)-1H-indol-3-yl]-propionyl}-thiazolidine-4-carbonitrile. Trifluoroacetic acid salt] | 
